# Measurements from patent US20230048576A1, “COMPOUNDS FOR THE TREATMENT OF NEUROPATHIC PAIN” (City of Hope, priority 2019, published 2023).
# Tests used:
# [1] = Formulation stability in 20% HPβCD in pH 8.0 buffer (HPLC area %); format: physicochemical
# [2] = Stability in acidic environment (simulated gastric fluid test), precipitation under polarized light microscope; format: physicochemical
# Experimental: To test the stability in the acidic environment (simulated gastric fluid test) of 5 and 10 mg/ml of LR-90 in 20% HPβCD in pH 8.0 buffer, the two concentrations were added into the equal volume of pH 1.2 buffer, mixed completely, and then observed under a polarized light microscope.
# [3] = Mean group body weight in Taxol model; format: in vivo, rat
# Experimental: Neuropathic pain was induced by intraperitoneal administration of Taxol at a dose level of 6 mg/kg on study days 0-6 and 12 mg/kg on study days 7-12. Following injection of Taxol animals experienced pain as was assessed using the von Frey test. The development of neuropathic pain was confirmed by measuring mechanical allodynia (Von Frey test) on study day 13 (for inclusion) and on study day 14 (1 hour and 2 hour post dosing) and 24 hour post first dosing.
# [4] = 5 mg/ml LR-90 in 20% HPβCD in pH 8.0 buffer
# [5] = 10 mg/ml LR-90 in 20% HPβCD in pH 8.0 buffer
# [6] = 100 mg/kg PO, Group 4, Baseline
smiles,measurement,setting,value
"CC(C)(Oc1ccc(NC(=O)Nc2ccc(Cc3ccc(NC(=O)Nc4ccc(OC(C)(C)C(=O)O)cc4)c(Cl)c3)cc2Cl)cc1)C(=O)O [LR-90, methylene bis[4,4′-(2-chlorophenylureidophenoxyisobutyric acid)]]",Final Purity (24 hr) (HPLC area),[1]; [4],99.20%
same,Initial Purity (HPLC area),[1]; [4],99.21%
same,Final Purity (24 hr) (HPLC area),[1]; [5],99.14%
same,Initial Purity (HPLC area),[1]; [5],99.20%
same,degradation of the compound,"[1]; 20% HPβCD solution, at least for 24 hours",no degradation
same,precipitation after mixing with equal volume of pH 1.2 buffer,"[2]; 5 mg/ml LR-90 in 20% HPβCD in pH 8.0 buffer, after an hour",no precipitation
same,precipitation after mixing with equal volume of pH 1.2 buffer,"[2]; 10 mg/ml LR-90 in 20% HPβCD in pH 8.0 buffer, about 60 min",Very little precipitation
same,Mean group body weight,"[3]; 25 mg/kg PO, Group 6, Baseline",223.50 g
same,Mean group body weight (% from baseline),"[3]; 25 mg/kg PO, Group 6, Baseline",100.00%
same,Mean group body weight,"[3]; 25 mg/kg PO, Group 6, Day 1",235.00 g
same,Mean group body weight (% from baseline),"[3]; 25 mg/kg PO, Group 6, Day 1",105.16%
same,Mean group body weight,"[3]; 25 mg/kg PO, Group 6, Day 3",237.50 g
same,Mean group body weight (% from baseline),"[3]; 25 mg/kg PO, Group 6, Day 3",106.26%
same,Mean group body weight,"[3]; 25 mg/kg PO, Group 6, Day 5",255.50 g
same,Mean group body weight (% from baseline),"[3]; 25 mg/kg PO, Group 6, Day 5",114.32%
same,Mean group body weight,"[3]; 25 mg/kg PO, Group 6, Day 7",264.30 g
same,Mean group body weight (% from baseline),"[3]; 25 mg/kg PO, Group 6, Day 7",118.31%
same,Mean group body weight,"[3]; 25 mg/kg PO, Group 6, Day 9",275.88 g
same,Mean group body weight (% from baseline),"[3]; 25 mg/kg PO, Group 6, Day 9",123.38%
same,Mean group body weight,"[3]; 25 mg/kg PO, Group 6, Day 11",282.38 g
same,Mean group body weight (% from baseline),"[3]; 25 mg/kg PO, Group 6, Day 11",126.30%
same,Mean group body weight,"[3]; 25 mg/kg PO, Group 6, Day 13",286.75 g
same,Mean group body weight (% from baseline),"[3]; 25 mg/kg PO, Group 6, Day 13",128.26%
same,Mean group body weight,"[3]; 25 mg/kg PO, Group 6, Day 16",277.50 g
same,Mean group body weight (% from baseline),"[3]; 25 mg/kg PO, Group 6, Day 16",124.11%
same,Mean group body weight,"[3]; 25 mg/kg PO, Group 6, Day 20",277.63 g
same,Mean group body weight (% from baseline),"[3]; 25 mg/kg PO, Group 6, Day 20",124.18%
same,Mean group body weight,"[3]; 25 mg/kg PO, Group 6, Day 23",263.63 g
same,Mean group body weight (% from baseline),"[3]; 25 mg/kg PO, Group 6, Day 23",117.84%
same,Mean group body weight,"[3]; 25 mg/kg PO, Group 6, Day 26",239.00 g
same,Mean group body weight (% from baseline),"[3]; 25 mg/kg PO, Group 6, Day 26",108.59%
same,Mean group body weight,"[3]; 50 mg/kg PO, Group 5, Baseline",225.88 g
same,Mean group body weight (% from baseline),"[3]; 50 mg/kg PO, Group 5, Baseline",100.00%
same,Mean group body weight,"[3]; 50 mg/kg PO, Group 5, Day 1",234.38 g
same,Mean group body weight (% from baseline),"[3]; 50 mg/kg PO, Group 5, Day 1",103.80%
same,Mean group body weight,"[3]; 50 mg/kg PO, Group 5, Day 3",241.63 g
same,Mean group body weight (% from baseline),"[3]; 50 mg/kg PO, Group 5, Day 3",106.95%
same,Mean group body weight,"[3]; 50 mg/kg PO, Group 5, Day 5",257.50 g
same,Mean group body weight (% from baseline),"[3]; 50 mg/kg PO, Group 5, Day 5",113.97%
same,Mean group body weight,"[3]; 50 mg/kg PO, Group 5, Day 7",268.63 g
same,Mean group body weight (% from baseline),"[3]; 50 mg/kg PO, Group 5, Day 7",118.88%
same,Mean group body weight,"[3]; 50 mg/kg PO, Group 5, Day 9",278.38 g
same,Mean group body weight (% from baseline),"[3]; 50 mg/kg PO, Group 5, Day 9",123.18%
same,Mean group body weight,"[3]; 50 mg/kg PO, Group 5, Day 11",286.13 g
same,Mean group body weight (% from baseline),"[3]; 50 mg/kg PO, Group 5, Day 11",126.60%
same,Mean group body weight,"[3]; 50 mg/kg PO, Group 5, Day 13",291.38 g
same,Mean group body weight (% from baseline),"[3]; 50 mg/kg PO, Group 5, Day 13",128.91%
same,Mean group body weight,"[3]; 50 mg/kg PO, Group 5, Day 16",280.13 g
same,Mean group body weight (% from baseline),"[3]; 50 mg/kg PO, Group 5, Day 16",123.98%
same,Mean group body weight,"[3]; 50 mg/kg PO, Group 5, Day 20",273.75 g
same,Mean group body weight (% from baseline),"[3]; 50 mg/kg PO, Group 5, Day 20",121.18%
same,Mean group body weight,"[3]; 50 mg/kg PO, Group 5, Day 23",264.29 g
same,Mean group body weight (% from baseline),"[3]; 50 mg/kg PO, Group 5, Day 23",116.09%
same,Mean group body weight,"[3]; 50 mg/kg PO, Group 5, Day 26",266.67 g
same,Mean group body weight (% from baseline),"[3]; 50 mg/kg PO, Group 5, Day 26",117.29%
same,Mean group body weight,[3]; [6],222.63 g
same,Mean group body weight (% from baseline),[3]; [6],100.00%
same,Mean group body weight,"[3]; 100 mg/kg PO, Group 4, Day 1",235.50 g
same,Mean group body weight (% from baseline),"[3]; 100 mg/kg PO, Group 4, Day 1",105.77%
same,Mean group body weight,"[3]; 100 mg/kg PO, Group 4, Day 3",237.63 g
